Data taken from paper PMC4427575, “Functional screening system for yeast-secreted peptides acting on G-protein coupled receptors” (AMB Express, 2015).

System: class A GPCR SST receptor
Assay: Effect of FLAG fusion on somatostatin (data not shown)
Conditions: result in words

somatostatin with FLAG fusion: FLAG fusion of somatostatin, endogenous circular peptide agonist acting on class A GPCR SST receptor
effect of the FLAG fusion: beneficial effect
